SMILES strings stand for the structures.

`CS(=O)(=O)c1ccc(-c2cnn(Cc3ccccc3)c(=S)c2-c2ccc(F)cc2)cc1` registered a melting point of 88 to 90 °C.

`COC(=O)NCc1nc(C(C)C)c(Sc2cc(Cl)cc(Cl)c2)n1C` had a melting point of 138 to 139 °C. `COc1ccc(C(=O)Nc2ccccc2)cc1NC(=S)Nc1ccc(Cl)c(C(F)(F)F)c1` had a melting point of 172 to 173 °C.

`CCc1cc2[nH]c(=O)c(=O)[nH]c2c([N+](=O)[O-])c1Cl`: the melting point is greater than 330 °C. Then `COc1ccc(N2CCCn3c2nc2c(Cl)ccc(C(OCC(F)F)C4CC4)c23)c(C)n1` (stereo not drawn), with 124 to 126 °C; and `COc1cccc2c(O)c(C)c(C)nc12`, with greater than 290 °C. Compound `COC(=O)c1ccc(OC)c(NC(=NCl)c2ccc(Cl)cc2)c1` had a melting point of 120 °C. Then `O=C(CC(O)(Cn1cncn1)c1ccc(Cl)cc1Cl)N1CC1` (stereo not drawn), with 151 to 153 °C; and `CCOC(=O)NCCc1cccc(-c2ccnc3c(Cl)cnn23)c1`, with 100 to 102 °C. Then `CN(C)C(=O)c1ccc([N+](=O)[O-])cc1S(N)(=O)=O`, with 159 to 160 °C; and `Nc1nc(N)c2ncn(COC(CO)CO)c2n1`, with 176 to 177 °C.

`CC(C)(C)c1cc(N2CCN(C(=O)c3ccc([N+](=O)[O-])cc3)C2=O)cc(C(C)(C)C)c1O` yielded a melting point greater than 260 °C. Turning to `CCNc1nc(-c2cccc(C3=Nc4cc(N(C)C)c(Cl)cc4NC(=O)C3)c2)cs1`, the melting point lay in the range of 122 to 123 °C. Turning to `CC#CC=NNC(=O)c1cc(OC)cc(Oc2cccc(C(F)(F)F)c2)n1`, the melting point was 147 to 148 °C. In turn, `Cc1nccn1-c1nc(-c2ccc(Cl)cc2)c(CCO)o1` returned a melting point of 159 to 160 °C. `COc1cc(/C=C/C(=O)O)ccc1OCc1sc(-c2ccc(C(F)(F)F)cc2)nc1C` displayed a melting point of 235 to 237 °C. For `O=C(O)Cc1ccc2c(c1)CC(CNS(=O)(=O)c1ccc3ccccc3c1)C2` (stereo not drawn) the value was 180 to 182 °C; for `CC12CC(=O)NN=C1c1ccc(N)cc1C2` (stereo not drawn), 222 °C; for `CN1CC=CC(c2cc3ccccc3o2)C1` (stereo not drawn), 63 °C.

With `C[C@@H](n1cnc2ncccc2c1=O)[C@](O)(Cn1cncn1)c1ccc(F)cc1F`, the melting point was in the range of 210 to 211 °C. Consider `CNc1cccc(-c2csc(NC(=N)N)n2)c1`, for which the melting point lay in the range of 198 to 200 °C.

For `CCCc1c(SC(=O)N(C)C)ccc2c(=O)cc(C(=O)OCC)oc12`, the melting point lay in the range of 113 to 114 °C.

In turn, `O=C1OCCC1NS(=O)(=O)c1ccc(Cl)cc1` (racemic) showed a melting point of 113 to 115 °C. `CCc1nc2cnc3cc(O)ccc3c2n1CC(C)C` displayed a melting point greater than 250 °C. `CCOC(=O)c1cn(CC)c2sc(C)cc2c1=O`: the melting point was 140 to 142 °C. For `Cc1c2n(c3ccccc13)C(=O)C(C)(Cc1ncn(C(c3ccccc3)(c3ccccc3)c3ccccc3)c1C)CC2` (stereo not drawn) the value was 116 to 118 °C. For `Cn1ncc(/C=C/C(=O)Nc2ccc(C(=O)O)cc2)c1-c1ccc(F)cc1` the value was 291 to 292 °C; for `CC1Cc2cc3c(cc2C(c2ccc([N+](=O)[O-])cc2)=NN1C(N)=NO)OCO3` (stereo not drawn), 138 to 145 °C. As for `N#Cc1nc(Cl)c(Oc2ccccc2)nc1C#N`, the melting point was 115 to 118 °C. In turn, `COC(=O)N=C1SCC(=O)N1c1c(-c2ccccc2)csc1NC(=O)CN(C)C` yielded a melting point of 124 to 126 °C. The compound `CCCN1CCc2ccc(C(=O)CCC(=O)N3CCC(c4ccc(Cl)cc4)CC3)cc2CC1` yielded a melting point of 151 to 152 °C. `O=[N+]([O-])c1cc2c(cc1NCC(O)CO)OCO2` (stereo not drawn): the melting point fell in the range of 120 to 121 °C.

The compound `CCOC(=O)c1cccc2c1C(=O)N(C)Cc1c(C(=O)OCC)ncn1-2` came in with a melting point of 136 to 140 °C. Consider `C=CCc1cc2c(c(CC=C)c1OC1CCCCO1)CCC(=O)N2` (stereo not drawn), for which the melting point is 119 to 120 °C.

Compound `O=[N+]([O-])c1ccc(OCc2ccc(C(F)(F)F)cc2)cc1` displayed a melting point of 80.5 to 81.5 °C. Then `N#Cc1cc(C(F)(F)F)[nH]c1-c1sc(Cl)c(Cl)c1Cl`, with 220 to 221 °C. Take `O=Cc1cc(Cc2cccnc2)ccc1O`: the melting point fell in the range of 130 to 132 °C. The compound `CCCCCCc1cc2c(s1)NC(=O)CN=C2c1ccccc1OC` yielded a melting point of 130 to 132 °C.

`Cc1cc(C)c(C(=O)c2c(C)cccc2C)c(OCC(O)CNC(C)C)c1` (stereo not drawn) returned a melting point of 102 to 104 °C.

`CC(=O)c1ccc(OCCCCNS(=O)(=O)c2ccc(Br)cc2)cc1` registered a melting point of 129 to 130 °C.

`CC(C)(C)OC(=O)N1CCC(c2ccc3[nH]c(=O)[nH]c3c2)CC1` yielded a melting point greater than 250 °C. For `CON1CCn2c(OC(=O)C(C)(C)C)c(-c3c(C)cc(C)cc3C)c(=O)n2CC1` the value was 147 to 148 °C; for `O=c1c2c(n(-c3ccccc3)c3ncccc13)CCC2`, 235 to 237 °C; for `CS(=O)(=O)c1ccc(-c2[nH]nc3c2-c2ccccc2CC3)cc1`, 178 to 180 °C. Then `COc1ccc(-c2nc(CCCCCCc3nnn[nH]3)oc2-c2ccc(OC)cc2)cc1`, with 124 °C. Then `CCc1ccccc1NC=C1C(=O)N(c2ccc(N(S(C)(=O)=O)S(C)(=O)=O)cc2)N=C1C`, with 268 °C; and `CC(C)N(CCN1C(=O)C(=O)c2ccccc21)C(C)C`, with 60 to 61 °C. Consider `CCOC(=O)C(C)Oc1ncn(-c2ccc(C)cc2)n1` (stereo not drawn), for which the melting point fell in the range of 69 to 71 °C.

Turning to `O=C(NN1CCc2ccccc2C(Oc2ccc(C(F)(F)F)cc2)C1)C(F)(F)F` (stereo not drawn), the melting point fell in the range of 192 to 195 °C.

On to `CC1(C)Cc2nc(N3CCOc4ccc(Br)cc43)sc2C(=O)N1`, for which the melting point stood at 155 °C.

`COc1ccc(C=C2Cc3c(C)cc(C)c(O)c3C2=O)cc1` returned a melting point of 192 to 193 °C. In turn, `Nc1nc(O)c2c(n1)NCC(CCc1cc(C(=O)O)c[nH]1)C2` (stereo not drawn) yielded a melting point greater than 260 °C.

As for `Cc1csc2c1c(C(=O)c1ccc(Cl)cc1)cn2C(C)C(=O)O` (stereo not drawn), the melting point is 149 °C.

With `CCNc1ncn(-c2ccccc2C)c(=O)n1`, the melting point was 208 to 210 °C.

`CN(C)c1c(CS(=O)(=O)C2=NOC(C)(C)C2)c(C(F)(F)F)nn1-c1ccccc1` had a melting point of 150 to 151 °C.

`Cc1c(C)c(O)c(CC[C@](C)(O)CO)c(C)c1O` came in with a melting point of 124 to 132 °C. Take `COc1ccccc1NC(=O)Nc1nc(Oc2ccc3ccccc3c2)nc(N(CCC(=O)O)Cc2ccc(C(F)(F)F)cc2C(F)(F)F)n1`: the melting point was determined as 192 °C. Turning to `CCOP(=O)(CCCCCCCOc1nc(-c2ccccc2)c(-c2ccccc2)n1-c1ccccc1)OCC`, the melting point was 76 to 77 °C. For `COc1ccc(-c2cc(-c3ccc(-c4c(Cc5ccccc5)sc5ccccc45)cc3)ccc2OC(Cc2ccccc2)C(=O)O)cc1` (stereo not drawn) the value was 82 to 84 °C; for `NCCc1nc(Cl)ccc1C(=O)O`, 158 to 160 °C; for `N#Cc1cc(N)ccc1N1CCN(C2CCSCC2)CC1`, 109 °C.

Turning to `COC(=O)C(=CN(C)C)N(C)c1nc(-c2ccc(Cl)cc2)cs1`, the melting point was 177 to 178 °C. Take `COc1cc2c(cc1-c1cc(F)ccc1F)NC(=O)CC(c1cccc(-n3ccnn3)c1)=N2`: the melting point turned out to be 241 °C. Then `CN(C)Cc1nc(CO)nn1-c1ccc(Cl)cc1C(=O)c1ccccc1`, with 198 to 200 °C. Then `CC1(COCc2ccccc2)COC(c2ccc([N+](=O)[O-])cc2)=N1` (stereo not drawn), with 65 to 66 °C; and `O=C1CCC2(CCN1)Cc1ccccc1C2`, with 164 to 165 °C; and `C[C@H]1[C@H](O)CN1c1c(F)cc2c(=O)c(C(=O)O)cn(C3CC3)c2c1F` (relative stereo), with 215 to 218 °C. Then `Cc1cccc(CN(Cc2cccc(C)n2)C(c2ccccn2)c2ccccn2)n1`, with 168 °C.

For the compound `CCn1nnc(Cc2ccc(NC(=O)/C=C/c3cnn(C)c3-c3ccc(F)cc3)cc2)n1`, the melting point lay in the range of 187 to 188 °C.

`Clc1ccc(-c2ccc(Br)cc2)cc1`: the melting point lay in the range of 81 to 82 °C. Compound `COc1ccc(C(=O)Nc2ccccc2)cc1NS(=O)(=O)c1ccc(NC(C)=O)cc1` yielded a melting point of 250 to 251 °C. Turning to `CC(C)(C)OC(=O)N1C[C@H](O)C[C@H]1C(N)=O`, the melting point fell in the range of 146 to 148 °C. Consider `CCN(CC)C(=S)c1cccc(F)c1[Si](C)(C)C`, for which the melting point was 71 to 73 °C.

Regarding `N#Cc1cccc(C2=Nc3ccc(C#CC4=CC(=O)CCC4)cc3NC(=O)C2)c1`, the melting point turned out to be 110 °C.

In turn, `Cc1cccc(N2CCN(Cc3c[nH]c4ncccc34)CC2)c1` displayed a melting point of 156 to 158 °C. `COc1ccc([C@H]2c3[nH]c4ccccc4c3C[C@H]3C(=O)NC(=O)N23)cc1` (relative stereo) yielded a melting point of 295 to 305 °C.

Turning to `N#CC(N=Cc1ccc([N+](=O)[O-])cc1)=C(Cl)Cl`, the melting point was 171 to 174 °C. For `CC(=O)n1cc(-c2cccc(Cl)c2Cl)c(C(F)(F)F)c1` the value was 65 to 66 °C. `COC(=O)c1cc(C)cc(OC)c1C1=C(OC)C(=O)c2c(OC(C)=O)cccc2C1=O` had a melting point of 127 to 128 °C. `Cc1c(C)c2cc(CCN3CCN(c4n[nH]c5ccccc45)CC3)ccc2[nH]c1=O` displayed a melting point of 266 to 268 °C. As for `CC(C)c1cc(-c2ccc(F)cc2)n(-c2ccccn2)n1`, the melting point lay in the range of 80 to 81 °C. `Cc1nc(NCc2ccccc2)[nH]c(=O)c1CCO`: the melting point is 187 °C. In turn, `COc1ccccc1CCC(C)(O)CC1CCCCN1` (stereo not drawn) showed a melting point of 115 to 116 °C. In turn, `O=C(Nc1ccccc1F)c1ccccc1CN1C(=O)C2(COc3cc4c(cc32)CCO4)c2ccccc21` (stereo not drawn) displayed a melting point of 195 to 197 °C. Then `O=C1Nc2cc3c(cc2OC1CCCN1CCN(c2ccc(F)cc2)CC1)CCCC3` (stereo not drawn), with 156 to 157 °C; and `N#CCN1CCc2ccc3c(c21)CCO3`, with 122 to 124 °C.

With `CCC(C#N)c1ccc(Cl)c2nc3n(c12)CCCN3c1ccc(Cl)cc1Cl` (stereo not drawn), the melting point was 220 to 221 °C.

In turn, `COc1ccccc1C(CNc1c(C#N)cnn2cccc12)N1CCOCC1` (stereo not drawn) returned a melting point of 157 °C.

What is called melting point is the temperature of the solid-liquid transition.
